The source of these data is patent US20130131034A1, “DERIVATIVES OF AMINOINDANES, THEIR PREPARATION AND THEIR APPLICATION IN THERAPEUTICS” (SANOFI, priority 2010, published 2013).

The structures appear in SMILES notation. Where a name gives a salt, the structure may show the parent alone.

In general, melting point refers to the temperature, or range, at which the solid turns liquid. Consider `COc1ccc2c(c1)[C@@H](Oc1ccc3c(c1)CCC(=O)N3)[C@H](N1CCC[C@@H](N)C1)C2` (as salt: HCl) [Compound 131, 6-({(1R,2R)-2-[(3R)-3-aminopiperidin-1-yl]-6-methoxy-2,3-dihydro-1H-inden-1-yl}oxy)-3,4-dihydroquinolin-2(1H)-one], for which the melting point worked out at 145.6 °C.

As for `N[C@@H]1CCCN([C@@H]2Cc3ccccc3[C@H]2Oc2cc3c(cc2Cl)NC(=O)CC3)C1` (as salt: HCl) [Compound 132, 6-({(1R,2R)-2-[(3R)-3-aminopiperidin-1-yl]-2,3-dihydro-1H-inden-1-yl}oxy)-7-chloro-3,4-dihydroquinolin-2(1H)-one], the melting point was determined as 183.7 °C.

The compound `CS(=O)(=O)c1ccc2c(c1)[C@@H](Oc1ccc(C#N)cc1Cl)[C@H](N1CCC[C@@H](N)C1)C2` (as salt: HCl) [Compound 123, 4-{[(1R,2R)-2-[(3R)-3-aminopiperidin-1-yl]-6-(methylsulfonyl)-2,3-dihydro-1H-inden-1-yl]oxy}-3-chlorobenzonitrile] yielded a melting point of 162 °C.

For `CC(C)(N)C1CN([C@@H]2Cc3ccccc3[C@H]2Oc2ccc(C#N)cc2Cl)C1` (as salt: HCl) [Compound 125, 4-({(1R,2R)-2-[3-(2-aminopropan-2-yl)azetidin-1-yl]-2,3-dihydro-1H-inden-1-yl}oxy)-3-chlorobenzonitrile], the melting point is 93 °C.

`N#Cc1ccc(O[C@@H]2c3ncccc3C[C@H]2N2CCC[C@@H](N)C2)c(Cl)c1` (as salt: HCl) [Compound 138, 4-({(6R,7S)-6-[(3R)-3-aminopiperidin-1-yl]-6,7-dihydro-5H-cyclopenta[b]pyridin-7-yl}oxy)-3-chlorobenzonitrile] displayed a melting point of 180 °C.

For the compound `N#Cc1ccc(O[C@@H]2c3cccnc3C[C@H]2N2CCC[C@@H](N)C2)c(Cl)c1` (as salt: HCl) [Compound 137, 4-({(5R,6R)-6-[(3R)-3-aminopiperidin-1-yl]-6,7-dihydro-5H-cyclopenta[b]pyridin-5-yl}oxy)-3-chlorobenzonitrile], the melting point worked out at 172 °C.
